Results: patent US11566007B2, “Ras inhibitors” (Revolution Medicines, Inc., priority 2019, dated 2023)
pIC50: −log10 of the molar value.

Key:
NRAS G12C = NRAS G12C (Homo sapiens (Human), UniProt P01111+P62937, G12C); assay: Ras-Raf (BRAF RBD) disruption / FRET / MOA assay, NRAS G12C; type: biochemical; details: read-out: IC50* NRAS G12C FRET data
Procedure, shortened: (§1)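 Compounds, top final concentration 30 μM in 10-point 3-fold series, incubated 3 hours at 25° C with nucleotide-loaded Ras, cyclophilin A and BRAF RBD.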

NRAS Q61K = NRAS Q61K (Homo sapiens (Human), UniProt P01111+P62937, Q61K); assay: Ras-Raf (BRAF RBD) disruption / FRET / MOA assay, NRAS Q61K; type: biochemical; details: NRAS Q61K; Ras-Raf disruption/FRET/MOA assay; read-out: IC50* NRAS Q61K FRET data
Procedure, shortened: (§2)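 TR-FRET disruption of nucleotide-loaded Ras binding to BRAF RBD via compound-driven ternary complex with cyclophilin A. Compound as 10-point 3-fold series from 30 μM final, 3 h at 25° C, then anti-His Eu-W1024 (10 nM) and anti-GST allophycocyanin (50 nM) for 1.5 h. IC50 from decreased FRET ratio versus DMSO.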

NRAS WT = NRAS WT (Homo sapiens (Human), UniProt P01111+P62937); assay: Ras-Raf (BRAF RBD) disruption / FRET / MOA assay, NRAS WT; type: biochemical; details: read-out: IC50* NRAS WT FRET data
Procedure, shortened: as §2

KRAS G12V = KRAS G12V (Homo sapiens (Human), UniProt P01116+P62937, G12V); assay: Ras-Raf (BRAF RBD) disruption / FRET / MOA assay, KRAS G12V; type: biochemical; details: read-out: IC50* KRAS G12V FRET data
Procedure, shortened: as §1

NCI-H358 (K-Ras G12C) = assay: CellTiter-Glo cell viability assay, NCI-H358; type: cell-based, human; details: Homo sapiens, NCI-H358, 120 h, NCI-H358, 5-day treatment; class symbols; read-out: Additional H358 Cell Viability assay data (K-Ras G12C, IC50)
Procedure, shortened: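 Cells seeded, compound added directly, 5-day exposure. Plates to RT ~30 min, CellTiter-Glo luminescence read. Normalized to DMSO avg (x100); 4-parameter logistic fit.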

K-Ras G13C = K-Ras G13C (Homo sapiens (Human), UniProt P01116+P62937, G13C); assay: Ras-Raf (BRAF RBD) disruption / FRET / MOA assay, KRAS G13C; type: biochemical; details: KRAS G13C; Ras-Raf disruption/FRET/MOA assay; read-out: IC50* KRAS G13C FRET data
Procedure, shortened: as §1

KRAS WT = KRAS WT (Homo sapiens (Human), UniProt P01116+P62937); assay: Ras-Raf (BRAF RBD) disruption / FRET / MOA assay, KRAS WT; type: biochemical; details: read-out: IC50* KRAS WT FRET data
Procedure, shortened: as §1

K-Ras G12C = K-Ras G12C (Homo sapiens (Human), UniProt P01116+P62937, G12C); assay: Ras-Raf (BRAF RBD) disruption / FRET / MOA assay, KRAS G12C; type: biochemical; details: KRAS G12C; Ras-Raf disruption/FRET/MOA assay; read-out: IC50* KRAS G12C FRET data
Procedure, shortened: as §1

Sequence of NRAS WT (P01111 whole entry): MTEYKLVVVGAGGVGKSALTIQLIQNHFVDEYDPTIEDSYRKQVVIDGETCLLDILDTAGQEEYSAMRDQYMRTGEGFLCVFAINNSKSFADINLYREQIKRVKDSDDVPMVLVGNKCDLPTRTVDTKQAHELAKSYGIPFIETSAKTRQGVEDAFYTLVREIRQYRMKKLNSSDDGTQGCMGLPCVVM
Sequence of NRAS WT (P62937 whole entry): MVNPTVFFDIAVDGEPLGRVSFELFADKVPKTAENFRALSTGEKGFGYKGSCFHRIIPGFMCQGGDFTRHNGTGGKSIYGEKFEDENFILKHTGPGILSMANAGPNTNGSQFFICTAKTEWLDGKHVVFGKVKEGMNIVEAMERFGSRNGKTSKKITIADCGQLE
Sequence of NRAS G12C (P01111 whole entry G12C): as the sequence (P01111 whole entry) above, with G12C counted along it
Sequence of NRAS G12C (P62937 whole entry): as the sequence (P62937 whole entry) above
Sequence of K-Ras G12C (P01116-2 other isoform, or with tags, fused parts or gaps G12C): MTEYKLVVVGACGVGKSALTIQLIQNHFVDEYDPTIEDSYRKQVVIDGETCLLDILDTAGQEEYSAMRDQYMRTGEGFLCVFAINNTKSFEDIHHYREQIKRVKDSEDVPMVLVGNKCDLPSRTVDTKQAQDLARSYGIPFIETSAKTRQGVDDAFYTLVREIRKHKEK
Sequence of K-Ras G12C (P62937 whole entry): as the sequence (P62937 whole entry) above
Sequence of KRAS G12V (P01116-2 other isoform, or with tags, fused parts or gaps G12V): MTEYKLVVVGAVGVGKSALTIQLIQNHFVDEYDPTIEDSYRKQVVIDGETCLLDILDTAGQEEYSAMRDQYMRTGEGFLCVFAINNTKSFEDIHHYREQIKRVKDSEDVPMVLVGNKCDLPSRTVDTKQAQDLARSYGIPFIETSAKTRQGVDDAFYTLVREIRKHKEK
Sequence of KRAS G12V (P62937 whole entry): as the sequence (P62937 whole entry) above
Sequence of K-Ras G13C (P01116-2 other isoform, or with tags, fused parts or gaps G13C): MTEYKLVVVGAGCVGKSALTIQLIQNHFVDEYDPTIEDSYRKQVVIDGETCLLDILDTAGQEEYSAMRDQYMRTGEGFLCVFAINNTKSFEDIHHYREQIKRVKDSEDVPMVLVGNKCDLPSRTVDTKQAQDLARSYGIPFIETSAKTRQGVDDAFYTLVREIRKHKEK
Sequence of K-Ras G13C (P62937 whole entry): as the sequence (P62937 whole entry) above
Sequence of NRAS Q61K (P01111 whole entry Q61K): as the sequence (P01111 whole entry) above, with Q61K counted along it
Sequence of NRAS Q61K (P62937 whole entry): as the sequence (P62937 whole entry) above
Sequence of KRAS WT (P01116-2 other isoform, or with tags, fused parts or gaps): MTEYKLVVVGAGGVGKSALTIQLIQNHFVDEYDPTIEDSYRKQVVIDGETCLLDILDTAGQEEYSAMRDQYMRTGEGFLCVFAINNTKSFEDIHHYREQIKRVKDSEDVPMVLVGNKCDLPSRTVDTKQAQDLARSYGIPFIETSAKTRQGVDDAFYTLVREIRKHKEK
Sequence of KRAS WT (P62937 whole entry): as the sequence (P62937 whole entry) above

| Compound | pIC50 (NRAS G12C) | pIC50 (NRAS Q61K) | pIC50 (NRAS WT) | pIC50 (KRAS G12V) | pIC50 (NCI-H358 (K-Ras G12C)) | pIC50 (K-Ras G13C) | pIC50 (KRAS WT) | pIC50 (K-Ras G12C) |
| --- | --- | --- | --- | --- | --- | --- | --- | --- |
| CCn1c(-c2cccnc2[C@H](C)OC)c2c3cc(ccc31)N1CCO[C@@H](C[C@H](NC(=O)[C@H](C(C)C)N(C)C(=O)C3(F)CCN(C(=O)C#CC(C)(C)N(C)C)CC3)C(=O)N3CCC[C@H](N3)C(=O)OCC(C)(C)C2)C1 (atropisomer, axis not shown) [Example A647, 1-(4-(dimethylamino)-4-methylpent-2-ynoyl)-N-((2S)-1-(((2^2S,6^3S,4S)-1^1-ethyl-1^2-(2-((S)-1-methoxyethyl)pyridin-3-yl)-10,10-dimethyl-5,7-dioxo-6^1,6^2,6^3,6^4,6^5,6^6-hexahydro-1^1H-8-oxa-2(4,2)-morpholina-1(5,3)-indola-6(1,3)-pyridazinacycloundecaphane-4-yl)amino)-3-methyl-1-oxobutan-2-yl)-4-fluoro-N-methylpiperidine-4-carboxamide] | > 8.00 | 5.00 to 6.00 | 6.00 to 7.00 | 5.00 to 6.00 | > 8.00 | 6.00 to 7.00 | 6.00 to 7.00 | > 8.00 |
| C=CC(=O)N1CC[C@]2(C1)OCN([C@H](C(=O)N[C@H]1Cc3cccc(n3)-c3ccc4c(c3)c(c(-c3cccnc3[C@H](C)OC)n4CC)CC(C)(C)COC(=O)[C@@H]3CCCN(N3)C1=O)C(C)C)C2=O (atropisomer, axis not shown) [Example A652] | 6.00 to 7.00 | 5.00 to 6.00 | 5.00 to 6.00 | 5.00 to 6.00 | 6.00 to 7.00 | 6.00 to 7.00 | 5.00 to 6.00 | 6.00 to 7.00 |
| CCn1c(-c2cccnc2[C@H](C)OC)c2c3cc(ccc31)-c1cc(CF)cc(c1)C[C@H](NC(=O)[C@H](C(C)C)N(C)C(=O)[C@H]1CCN(C(=O)C#CC(C)(C)N(C)C)C1)C(=O)N1CCC[C@H](N1)C(=O)OCC(C)(C)C2 (atropisomer, axis not shown) [Example A658] | > 8.00 | < 5.00 | 5.00 to 6.00 | 5.00 to 6.00 | > 8.00 | 6.00 to 7.00 | 5.00 to 6.00 | > 8.00 |
| C=CC(=O)N1CC2(CCCN2C(=O)N(C)[C@H](C(=O)N[C@H]2Cc3nc(cs3)-c3ccc4c(c3)c(c(-c3cccnc3[C@H](C)OC)n4CC)CC(C)(C)COC(=O)[C@@H]3CCCN(N3)C2=O)C(C)C)C1 (atropisomer, axis not shown) [Example A667] | > 8.00 | 7.00 to 8.00 | 7.00 to 8.00 | 6.00 to 7.00 | > 8.00 | 6.00 to 7.00 | 7.00 to 8.00 | > 8.00 |
| CCn1c(-c2cccnc2[C@H](C)OC)c2c3cc(ccc31)-c1cc(CF)cc(c1)C[C@H](NC(=O)[C@H](C(C)C)N1CC[C@]3(CCN(C(=O)C#CC(C)(C)N(C)C)C3)C1=O)C(=O)N1CCC[C@H](N1)C(=O)OCC(C)(C)C2 (atropisomer, axis not shown) [Example A673] | > 8.00 | 5.00 to 6.00 | 5.00 to 6.00 | 6.00 to 7.00 | > 8.00 | 6.00 to 7.00 | 5.00 to 6.00 | > 8.00 |
| CCn1c(-c2cccnc2[C@H](C)OC)c2c3cc(ccc31)-c1cccc(c1)C[C@H](NC(=O)[C@H](C(C)C)N(C)C(=O)C1(F)CCN(C(=O)/C=C/CN(C)C)CC1)C(=O)N1CCC[C@H](N1)C(=O)OCC(C)(C)C2 (atropisomer, axis not shown) [Example A685] | 7.00 to 8.00 | 6.00 to 7.00 | 6.00 to 7.00 | 6.00 to 7.00 | > 8.00 | 6.00 to 7.00 | 6.00 to 7.00 | 7.00 to 8.00 |
| CO[C@@H](C)c1ncccc1-c1c2c3cc(ccc3n1CC(F)(F)F)-c1cccc(c1)C[C@H](NC(=O)[C@H](C(C)C)N1CC[C@]3(CCN(C(=O)C#CC(C)(C)N(C)C)C3)C1=O)C(=O)N1CCC[C@H](N1)C(=O)OCC(C)(C)C2 (atropisomer, axis not shown) [Example A689] | > 8.00 | 5.00 to 6.00 | 5.00 to 6.00 | 5.00 to 6.00 | > 8.00 | 6.00 to 7.00 | 5.00 to 6.00 | > 8.00 |
| CCn1c(-c2cccnc2[C@H](C)OC)c2c3cc(ccc31)-c1csc(n1)C[C@H](NC(=O)[C@H](C(C)C)N(C)C(=O)N(C)C1CN(C(=O)/C=C/C3CN(C)C3)C1)C(=O)N1CCC[C@H](N1)C(=O)OCC(C)(C)C2 (atropisomer, axis not shown) [Example A690] | 6.00 to 7.00 | 6.00 to 7.00 | 6.00 to 7.00 | 5.00 to 6.00 | 6.00 to 7.00 | 6.00 to 7.00 | 6.00 to 7.00 | 6.00 to 7.00 |
| CO[C@@H](C)c1ncccc1-c1c2c3cc(ccc3n1CC(F)(F)F)-c1cccc(c1)C[C@H](NC(=O)[C@@H](COC1CN(C(=O)C#CC3(C)OCCO3)C1)C(C)C)C(=O)N1CCC[C@H](N1)C(=O)OCC(C)(C)C2 (atropisomer, axis not shown) [Example A703] | 7.00 to 8.00 | < 5.00 | 5.00 to 6.00 | 5.00 to 6.00 | 7.00 to 8.00 | 5.00 to 6.00 | 5.00 to 6.00 | 7.00 to 8.00 |
| C=CC(=O)N1CC(N(C)C(=O)N(C)[C@H](C(=O)N[C@H]2Cc3nc(cs3)-c3ccc4c(c3)c(c(-c3cccnc3[C@H](C)OC)n4CC(F)(F)F)CC(C)(C)COC(=O)[C@@H]3CCCN(N3)C2=O)C(C)C)C1 (atropisomer, axis not shown) [Example A711] | > 8.00 | 7.00 to 8.00 | 7.00 to 8.00 | 6.00 to 7.00 | > 8.00 | 7.00 to 8.00 | 7.00 to 8.00 | > 8.00 |
| CCn1c(-c2cccnc2[C@H](C)OC)c2c3cc(ccc31)-c1csc(n1)C[C@H](NC(=O)[C@@H](COC1CN(C(=O)C#CC(C)(C)N(C)C)C1)C(C)C)C(=O)N1CCC[C@H](N1)C(=O)OCC(C)(C)C2 (atropisomer, axis not shown) [Example A721] | > 8.00 | < 5.00 | 5.00 to 6.00 | 5.00 to 6.00 | > 8.00 | 5.00 to 6.00 | < 5.00 | > 8.00 |
| CO[C@@H](C)c1ncccc1-c1c2c3cc(ccc3n1CC(F)(F)F)-c1cccc(c1)C[C@H](NC(=O)[C@H](C(C)C)N(C)C(=O)[C@H]1CCN(C(=O)C#CC(C)(C)N(C)C)C1)C(=O)N1CCC[C@H](N1)C(=O)OCC(C)(C)C2 (atropisomer, axis not shown) [Example A727] | > 8.00 | 5.00 to 6.00 | 5.00 to 6.00 | 5.00 to 6.00 | > 8.00 | 6.00 to 7.00 | 5.00 to 6.00 | > 8.00 |
| CCn1c(-c2cccnc2)c2c3cc(ccc31)-c1csc(c1)C[C@H](NC(=O)[C@H](C(C)C)N(C)C(=O)[C@H]1CCN(C(=O)C#CCN3CCOCC3)C1)C(=O)N1CCC[C@H](N1)C(=O)OCC(C)(C)C2 [Example A205] | 5.00 to 6.00 | < 5.00 | < 5.00 | < 5.00 | 6.00 to 7.00 | < 5.00 | < 5.00 | 6.00 to 7.00 |
| C=CC(=O)N1CC[C@H](C(=O)N(C)[C@H](C(=O)N[C@H]2C[C@H]3CN(CCO3)c3ccc4c(c3)c(c(-c3cccnc3COC)n4CC)CC(C)(C)COC(=O)[C@@H]3CCCN(N3)C2=O)C(C)C)C1 [Example A240] | 5.00 to 6.00 | < 5.00 | < 5.00 | < 5.00 | < 6.00 | < 5.00 | < 5.00 | 5.00 to 6.00 |
| CCn1c(-c2cccnc2[C@H](C)OC)c2c3cc(ccc31)N1CCO[C@@](C)(C[C@H](NC(=O)[C@H](C(C)C)N(C)C(=O)C3(F)CCN(C(=O)C#CC(C)(C)N(C)C)CC3)C(=O)N3CCC[C@H](N3)C(=O)OCC(C)(C)C2)C1 [Example A550] | > 8.00 | 5.00 to 6.00 | 6.00 to 7.00 | 6.00 to 7.00 | > 8.00 | 6.00 to 7.00 | 6.00 to 7.00 | > 8.00 |
| C=CC(=O)N1CCO[C@H]2CN(C(=O)N(C)[C@H](C(=O)N[C@H]3C[C@H]4CN(CCO4)c4ccc5c(c4)c(c(-c4cccnc4[C@H](C)OC)n5CC)CC(C)(C)COC(=O)[C@@H]4CCCN(N4)C3=O)C(C)C)C[C@H]21 [Example A562] | 6.00 to 7.00 | 5.00 to 6.00 | 5.00 to 6.00 | 5.00 to 6.00 | 6.00 to 7.00 | 6.00 to 7.00 | 5.00 to 6.00 | 6.00 to 7.00 |
